Source: the NIST ThermoML archive (doi:10.1016/j.jct.2004.04.013)
Several values for one entry are separate records, joined by “and”; a condition that tells them apart may be missing. Equal values may be shown once.

Conditions: Liquid, Pulse-echo method

c1ccccc1 [benzene]
Conditions | speed of sound
283.15 K, 101 kPa | 1371.6 m/s
283.15 K, 1112 kPa | 1376.8 m/s
283.15 K, 2281 kPa | 1382.4 m/s
283.15 K, 4616 kPa | 1393.2 m/s
283.15 K, 6766 kPa | 1403.3 m/s
283.15 K, 9100 kPa | 1413.6 m/s
283.15 K, 11628 kPa | 1424.5 m/s
283.15 K, 14278 kPa | 1436 m/s
283.15 K, 15957 kPa | 1443.4 m/s
283.15 K, 18556 kPa | 1454 m/s
283.15 K, 20823 kPa | 1463 m/s
283.15 K, 23405 kPa | 1473.4 m/s
298.15 K, 101 kPa | 1299.9 m/s and 1300.2 m/s
298.15 K, 888 kPa | 1305 m/s
298.15 K, 1246 kPa | 1305.8 m/s
298.15 K, 2254 kPa | 1311.8 m/s
298.15 K, 2506 kPa | 1312.2 m/s
298.15 K, 4580 kPa | 1322.5 m/s
298.15 K, 4719 kPa | 1323.9 m/s
298.15 K, 6991 kPa | 1334.4 m/s
298.15 K, 7131 kPa | 1335.5 m/s
298.15 K, 9327 kPa | 1346.2 m/s
298.15 K, 9335 kPa | 1346.2 m/s
298.15 K, 9408 kPa | 1346 m/s
298.15 K, 11563 kPa | 1355.8 m/s
298.15 K, 11640 kPa | 1357 m/s
298.15 K, 14137 kPa | 1368.5 m/s
298.15 K, 14317 kPa | 1368.6 m/s
298.15 K, 15927 kPa | 1375.9 m/s
298.15 K, 16524 kPa | 1379.1 m/s
298.15 K, 18655 kPa | 1388.6 m/s
298.15 K, 18844 kPa | 1389 m/s
298.15 K, 20826 kPa | 1398.1 m/s
298.15 K, 21001 kPa | 1398.6 m/s
298.15 K, 23151 kPa | 1407.9 m/s
298.15 K, 23834 kPa | 1410.7 m/s
298.15 K, 25699 kPa | 1418.5 m/s
298.15 K, 26172 kPa | 1420.5 m/s
298.15 K, 28369 kPa | 1428.5 m/s
313.15 K, 101 kPa | 1230.8 m/s
313.15 K, 2047 kPa | 1241.3 m/s
313.15 K, 3268 kPa | 1247.8 m/s
313.15 K, 5111 kPa | 1257.8 m/s
313.15 K, 7199 kPa | 1268.7 m/s
313.15 K, 9383 kPa | 1280 m/s
313.15 K, 11613 kPa | 1291.3 m/s
313.15 K, 14139 kPa | 1303.7 m/s
313.15 K, 16386 kPa | 1314.6 m/s
313.15 K, 18686 kPa | 1325.5 m/s
313.15 K, 21242 kPa | 1337.2 m/s
313.15 K, 23254 kPa | 1346.4 m/s
313.15 K, 24384 kPa | 1351.3 m/s
313.15 K, 25607 kPa | 1357.2 m/s
313.15 K, 25608 kPa | 1357.3 m/s
313.15 K, 28210 kPa | 1368.6 m/s
333.15 K, 101 kPa | 1142.4 m/s
333.15 K, 1260 kPa | 1148 m/s
333.15 K, 2426 kPa | 1155 m/s
333.15 K, 5026 kPa | 1170.5 m/s
333.15 K, 7135 kPa | 1182.9 m/s
333.15 K, 9195 kPa | 1194.5 m/s
333.15 K, 11729 kPa | 1208.4 m/s
333.15 K, 14011 kPa | 1220.6 m/s
333.15 K, 16310 kPa | 1232.7 m/s
333.15 K, 18687 kPa | 1244.8 m/s
333.15 K, 20059 kPa | 1251.8 m/s
333.15 K, 21112 kPa | 1257.2 m/s
333.15 K, 23196 kPa | 1267.4 m/s
333.15 K, 25517 kPa | 1278.7 m/s
333.15 K, 28165 kPa | 1287.7 m/s

ClC(Cl)(Cl)Cl [tetrachloromethane]
Conditions | speed of sound [m/s]
283.15 K, 101 kPa | 969.1
283.15 K, 497 kPa | 970.5
283.15 K, 1065 kPa | 972.7
283.15 K, 2192 kPa | 976.9
283.15 K, 2306 kPa | 977.4
283.15 K, 3433 kPa | 981.6
283.15 K, 5102 kPa | 987.7
283.15 K, 5958 kPa | 990.8
283.15 K, 7972 kPa | 998
283.15 K, 8771 kPa | 1000.6
283.15 K, 9833 kPa | 1004.6
283.15 K, 11260 kPa | 1009.5
283.15 K, 12970 kPa | 1015.5
283.15 K, 13650 kPa | 1017.6
283.15 K, 16043 kPa | 1026
283.15 K, 19058 kPa | 1035.9
283.15 K, 22343 kPa | 1046.6
283.15 K, 25816 kPa | 1057.5
283.15 K, 30453 kPa | 1071.7
298.15 K, 101 kPa | 921.1
298.15 K, 583 kPa | 923.1
298.15 K, 865 kPa | 924.2
298.15 K, 887 kPa | 924.4
298.15 K, 1384 kPa | 926.4
298.15 K, 1731 kPa | 927.8
298.15 K, 1900 kPa | 928.4
298.15 K, 2056 kPa | 929.1
298.15 K, 2905 kPa | 932.5
298.15 K, 3020 kPa | 933
298.15 K, 3919 kPa | 936.6
298.15 K, 4367 kPa | 938.4
298.15 K, 4908 kPa | 940.5
298.15 K, 5436 kPa | 942.6
298.15 K, 5946 kPa | 944.5
298.15 K, 6868 kPa | 948
298.15 K, 7358 kPa | 949.9
298.15 K, 7761 kPa | 951.5
298.15 K, 8818 kPa | 955.5
298.15 K, 8930 kPa | 955.9
298.15 K, 9903 kPa | 959.6
298.15 K, 10321 kPa | 961.2
298.15 K, 11239 kPa | 964.6
298.15 K, 12541 kPa | 969.3
298.15 K, 13397 kPa | 972.5
298.15 K, 14945 kPa | 978
298.15 K, 15313 kPa | 979.4
298.15 K, 17404 kPa | 986.8
298.15 K, 17674 kPa | 987.8
298.15 K, 20253 kPa | 996.7
298.15 K, 20404 kPa | 997.2
298.15 K, 22533 kPa | 1004.5
298.15 K, 24855 kPa | 1012.3
298.15 K, 24984 kPa | 1012.8
298.15 K, 25186 kPa | 1013.4
298.15 K, 27693 kPa | 1021.7
298.15 K, 29953 kPa | 1029
298.15 K, 30569 kPa | 1030.8
313.15 K, 101 kPa | 874.2
313.15 K, 108 kPa | 874.2
313.15 K, 478 kPa | 875.9
313.15 K, 894 kPa | 877.7
313.15 K, 1827 kPa | 881.9
313.15 K, 2938 kPa | 886.7
313.15 K, 4119 kPa | 891.6
313.15 K, 5135 kPa | 896.1
313.15 K, 5591 kPa | 898
313.15 K, 6975 kPa | 903.6
313.15 K, 8334 kPa | 909.4
313.15 K, 10049 kPa | 916.2
313.15 K, 12992 kPa | 927.9
313.15 K, 14421 kPa | 933.4
313.15 K, 16421 kPa | 941.1
313.15 K, 18812 kPa | 949.9
313.15 K, 20514 kPa | 956.3
313.15 K, 25209 kPa | 972.9
313.15 K, 31645 kPa | 994.8
333.15 K, 101 kPa | 813
333.15 K, 967 kPa | 817.4
333.15 K, 1691 kPa | 820.9
333.15 K, 2195 kPa | 823.4
333.15 K, 3177 kPa | 828.1
333.15 K, 5118 kPa | 837.4
333.15 K, 5595 kPa | 839.5
333.15 K, 7312 kPa | 847.3
333.15 K, 8236 kPa | 851.5
333.15 K, 9201 kPa | 855.8
333.15 K, 10593 kPa | 862
333.15 K, 11851 kPa | 867.4
333.15 K, 13131 kPa | 872.9
333.15 K, 14740 kPa | 879.6
333.15 K, 15989 kPa | 884.8
333.15 K, 17758 kPa | 892.1
333.15 K, 19476 kPa | 898.9
333.15 K, 20905 kPa | 904.6
333.15 K, 22422 kPa | 910.5
333.15 K, 25433 kPa | 922
333.15 K, 27880 kPa | 931.1
333.15 K, 31372 kPa | 943.7
